The values that follow come from patent US20050090428A1, “Porphyrins with virucidal activity” (priority 2002, published 2005).

One assay has as its system HIV-1 IIIB. The experiment in a line: Screening for virucidal activity against HIV-1 IIIB, MAGI cell assay. The following applies: for inhibition of HIV-1 IIIB (percent virus inactivated), screening assay: 50 μg/ml, 1 hr in the dark, diluted 10-fold, MAGI cells, without removal of free compound; for activity against HIV in words: MAGI screening assay, HIV-1 IIIB.
The subject of the next assay is HSV-1(F) or HSV-2(G). Nature of the assay: In vitro HSV inactivation, plaque assay on Vero cells. The class given is cell-based, herpes simplex virus. The following applies: room temperature, in the dark, up to 60 minutes. As to the method:
Either HSV-1(F) or HSV-2(G) (10^7 pfu) was mixed with 1 ml of porphyrin at the concentration indicated in Dulbecco's modified Eagle's medium (DME) with 1% newborn calf serum. All assays were performed in duplicate. All tubes were wrapped in foil to keep out light, and ambient room light was reduced as much as was practicable. Virus and porphyrin were incubated together at room temperature for times up to 60 minutes (Table 2). Following incubation, 10 fold serial dilutions were performed in DME with 1% newborn serum, using tubes wrapped in foil. Virus was diluted 20,000 fold and plated on Vero cells. Following a 2 hour incubation with the cells, the inoculum was removed and cells were overlaid with DME with 1% newborn calf serum and 0.2% human gamma globulin. Cells were fixed and stained, and plaques counted, 2 days after infection.

The target of assay [1] is T1, HIV-1 Env protein (HXB2 Env) (Human immunodeficiency virus type 1 group M subtype B, UniProt P04578).
T1 construct: expressed in transfected cells; host or cells: 293T cells transfected with pIIIenv3-1 plus pCMVTAT; cocultured with 3T3 cells expressing CD4 and CXCR4
The class given is cell-based.

In the next assay the target is 89.6 Env (Human immunodeficiency virus type 1 group M subtype B, UniProt Q73372). The class given is cell-based, HIV-1.
Chain of 89.6 Env (Q73372 32-719 limits assumed): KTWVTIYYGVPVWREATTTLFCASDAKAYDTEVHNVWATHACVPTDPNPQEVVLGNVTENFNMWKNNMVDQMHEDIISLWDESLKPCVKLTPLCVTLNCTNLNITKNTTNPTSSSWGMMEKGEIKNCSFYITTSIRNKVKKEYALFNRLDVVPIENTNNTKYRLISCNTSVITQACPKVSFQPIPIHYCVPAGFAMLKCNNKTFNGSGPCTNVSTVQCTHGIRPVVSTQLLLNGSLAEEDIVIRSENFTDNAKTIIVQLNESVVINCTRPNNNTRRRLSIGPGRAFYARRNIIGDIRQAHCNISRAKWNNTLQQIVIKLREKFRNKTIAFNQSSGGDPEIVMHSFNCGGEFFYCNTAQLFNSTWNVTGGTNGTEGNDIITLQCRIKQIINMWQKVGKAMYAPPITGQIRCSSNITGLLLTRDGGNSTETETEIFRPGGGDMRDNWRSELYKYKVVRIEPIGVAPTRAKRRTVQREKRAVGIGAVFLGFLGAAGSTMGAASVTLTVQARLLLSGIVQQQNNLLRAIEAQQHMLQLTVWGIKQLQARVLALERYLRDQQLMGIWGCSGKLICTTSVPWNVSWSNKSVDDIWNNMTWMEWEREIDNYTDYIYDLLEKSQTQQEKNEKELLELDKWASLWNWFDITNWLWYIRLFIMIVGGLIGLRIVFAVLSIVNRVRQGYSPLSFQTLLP
Chain of 89.6 Env (Q73372 509-719 partner limits assumed): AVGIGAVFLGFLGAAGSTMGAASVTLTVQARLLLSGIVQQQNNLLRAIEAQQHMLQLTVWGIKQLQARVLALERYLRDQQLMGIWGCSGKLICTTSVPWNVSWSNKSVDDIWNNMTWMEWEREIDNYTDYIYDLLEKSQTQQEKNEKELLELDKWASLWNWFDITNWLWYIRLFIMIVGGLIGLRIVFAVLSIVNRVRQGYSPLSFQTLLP
The target of assay [2] is T2, binding of HIV-1 IIIB gp120 to CD4 (Human immunodeficiency virus type 1 group M subtype B, UniProt P04578).
T2 construct: The recombinant IIB gp120 protein (baculovirus-expressed) was obtained from Intracel; purchased Intracel (Cambridge, Mass.) for gp120; host or cells: baculovirus-expressed (gp120)
Nature of the assay: gp120-CD4 binding assay (ELISA). As to conditions: 1 hr at room temperature. As to the method:
To investigate the possible effect of porphyrin compounds on binding of HIV-1 IIIB gp120 to CD4, a gp120 CD4 binding assay was developed. The assay was developed as a modification of a capture gp120 ELISA kit (Intracel Corporation). Briefly, a 96-well plate was coated with soluble CD4 and 0.5 μg of HIV-1 IIIB gp120 per well was incubated in the presence or absence of test compounds for 1 hr at room temperature. After four washes with buffer to remove unbound proteins, the bound gp120 was detected by anti-gp120 peroxidase-conjugated antibodies and quantitated by the protocol provided by the manufacturer.

Another assay concerns the target IIIB Env of HIV 1 (Human immunodeficiency virus type 1 group M subtype B, UniProt P03375). The assay is classed as cell-based.

Turning to `Cc1cc(C)c(S(=O)(=O)O)c(C)c1-c1c2nc(c(-c3c(C)cc(C)c(S(=O)(=O)O)c3C)c3ccc([n-]3)c(-c3c(C)cc(C)c(S(=O)(=O)O)c3C)c3nc(c(-c4c(C)cc(C)c(S(=O)(=O)O)c4C)c4ccc1[n-]4)C=C3)C=C2.[Co+2]` [TMPS,Co], the “inhibition of HIV-1 IIIB (percent virus inactivated), screening assay” value in the assay on HIV-1 IIIB is on record as “about 80%”. In the assay on HSV-1(F) or HSV-2(G), the “inactivating HSVs” value was “active”.

Turning to `O=C(O)c1ccc(-c2c3nc(c(-c4ccc(C(=O)O)cc4)c4ccc([nH]4)c(-c4ccc(C(=O)O)cc4)c4nc(c(-c5ccc(C(=O)O)cc5)c5ccc2[nH]5)C=C4)C=C3)cc1` [TPPC4], the “inactivating HSVs” value in the assay on HSV-1(F) or HSV-2(G) is recorded as “active”.

Regarding `O=S(=O)(O)c1ccc(-c2c3nc(c(-c4ccc(S(=O)(=O)O)cc4)c4ccc([nH]4)c(-c4ccc(S(=O)(=O)O)cc4)c4nc(c(-c5ccccc5)c5ccc2[nH]5)C=C4)C=C3)cc1.[Cu]` [TPPS3,Cu], in the assay on HSV-1(F) or HSV-2(G), the “inactivating HSVs” value is listed as “active”.

As for `O=S(=O)(O)c1ccc(-c2c3nc(c(-c4ccc(S(=O)(=O)O)cc4)c4ccc([nH]4)c(-c4ccc(S(=O)(=O)O)cc4)c4nc(c(-c5ccccc5)c5ccc2[nH]5)C=C4)C=C3)cc1.[Zn]` [TPPS3,Zn], in the assay with HSV-1(F) or HSV-2(G), the “inactivating HSVs” value is given as “active”.

`O=S(=O)(O)c1ccc(-c2c3nc(c(-c4ccc(S(=O)(=O)O)cc4)c4ccc([nH]4)c(-c4ccc(S(=O)(=O)O)cc4)c4nc(c(-c5ccc(S(=O)(=O)O)cc5)c5ccc2[nH]5)C=C4)C=C3)cc1` [TPPS4, mesotetra(4-sulfonatophenyl)porphine]: the “inhibition of HIV-1 IIIB (percent virus inactivated), screening assay” value with HIV-1 IIIB turned out to be 93%. In addition, the “Presence of nuclei in syncytia, pIIIenv X4, 6 h” value (“Presence … pIIIenv X4, 6 h” for short) in assay [1] was “−”. Also, on 89.6 Env, the “Presence of nuclei in syncytia, VV89.6 envt R5, 23 h” value (“Presence … VV89.6 envt R5, 23 h” for short) was 1+/4+ (key: 4+: more than 50% of nuclei are in syncytia; 3+: 30 to 50% of nuclei are in syncytia; 2+: 30 to 10% of nuclei are in syncytia; +: less than 10% of nuclei are in syncytia; −: no syncytia were observed); the “Presence of nuclei in syncytia, VV89.6 envt X4, 6 h” value (“Presence … VV89.6 envt X4, 6 h” below) was “−/4+”; the “Presence of nuclei in syncytia, VV89.6 envt X4, 23 h” value (“Presence … VV89.6 envt X4, 23 h” below) was “−/4+ (key: 4+: more than 50% of nuclei are in syncytia; 3+: 30 to 50% of nuclei are in syncytia; 2+: 30 to 10% of nuclei are in syncytia; +: less than 10% of nuclei are in syncytia; −: no syncytia were observed)”.

`O=S(=O)(O)c1ccc(C2=C3C=CC(=N3)[C-](c3ccc(S(=O)(=O)O)cc3)C3=NC(=C(c4ccc(S(=O)(=O)O)cc4)c4[cH-]cc(n4)C(c4ccc(S(=O)(=O)O)cc4)=C4C=CC2=N4)C=C3)cc1.[Cu+2]` (stereo not shown) [TPPS4,Cu]: in the assay with HIV-1 IIIB, the “inhibition of HIV-1 IIIB (percent virus inactivated), screening assay” value was determined as 97% and the “activity against HIV in words” value is given as “intermediate levels of activity”. In addition, in assay [2], the “inhibition of gp120/CD4 binding” value was 80-100%. In addition, on IIIB Env of HIV 1, the “inhibition of HIV-induced cell fusion in words” value was “Complete inhibition”. In the assay on HSV-1(F) or HSV-2(G), the “inactivating HSVs” value is given as “active”. In assay [1], the “Presence … pIIIenv X4, 6 h” value is reported as “−”.

As for `O=S(=O)(O)c1ccc(-c2c3nc(c(-c4ccc(S(=O)(=O)O)cc4)c4ccc([n-]4)c(-c4ccc(S(=O)(=O)O)cc4)c4ccc([n-]4)c(-c4ccc(S(=O)(=O)O)cc4)c4nc2C=C4)C=C3)cc1.[Ni+2]` [TPPS4,Ni], at 89.6 Env, the “Presence of nuclei in syncytia, VV89.6 envt R5, 6 h” value (“Presence … VV89.6 envt R5, 6 h” for short) is listed as “−/1+”; the “Presence … VV89.6 envt X4, 6 h” value is “−/3+”; the “Presence … VV89.6 envt X4, 23 h” value is “−/3+ (key: 4+: more than 50% of nuclei are in syncytia; 3+: 30 to 50% of nuclei are in syncytia; 2+: 30 to 10% of nuclei are in syncytia; +: less than 10% of nuclei are in syncytia; −: no syncytia were observed)”.

In the case of `O=S(=O)(O)c1ccc(-c2c3nc(c(-c4ccc(S(=O)(=O)O)cc4)c4ccc([n-]4)c(-c4ccc(S(=O)(=O)O)cc4)c4nc(c(-c5ccc(S(=O)(=O)O)cc5)c5ccc2[n-]5)C=C4)C=C3)cc1.[Pd+2]` [TPPS4,Pd], the “Presence … pIIIenv X4, 6 h” value in assay [1] is listed as “−”. Also, on 89.6 Env, the “Presence … VV89.6 envt R5, 6 h” value is reported as “−/4+”; the “Presence … VV89.6 envt R5, 23 h” value was “−/4+ (key: 4+: more than 50% of nuclei are in syncytia; 3+: 30 to 50% of nuclei are in syncytia; 2+: 30 to 10% of nuclei are in syncytia; +: less than 10% of nuclei are in syncytia; −: no syncytia were observed)”; the “Presence … VV89.6 envt X4, 6 h” value is recorded as “−/4+”; the “Presence … VV89.6 envt X4, 23 h” value is “−/4+ (key: 4+: more than 50% of nuclei are in syncytia; 3+: 30 to 50% of nuclei are in syncytia; 2+: 30 to 10% of nuclei are in syncytia; +: less than 10% of nuclei are in syncytia; −: no syncytia were observed)”.

As to `O=S(=O)(O)c1ccc(-c2c3nc(c(-c4ccc(S(=O)(=O)O)cc4)c4ccc([nH]4)c(-c4ccc(S(=O)(=O)O)cc4)c4nc(c(-c5ccc(S(=O)(=O)O)cc5)c5ccc2[nH]5)C=C4)C=C3)cc1.[Zn]` [TPPS4,Zn], in the assay on HSV-1(F) or HSV-2(G), the “inactivating HSVs” value was “active”.

As to `O=S(=O)(O)c1ccc(Cl)c(-c2c3nc(c(-c4c(Cl)ccc(S(=O)(=O)O)c4Cl)c4ccc([nH]4)c(-c4c(Cl)ccc(S(=O)(=O)O)c4Cl)c4nc(c(-c5c(Cl)ccc(S(=O)(=O)O)c5Cl)c5ccc2[nH]5)C=C4)C=C3)c1Cl` [tetrakis(2,6dichlorosulfonatonatophenyl)porphyrin], the “inactivating HSVs” value with HSV-1(F) or HSV-2(G) is “active”.

Turning to “sulfonated 2,6-difluoroTPP [TPP(2,6-F2)S]”, in the assay on HIV-1 IIIB, the “activity against HIV in words” value is on record as “most active”. Besides, the “inhibition of gp120/CD4 binding in words” value in assay [2] was “completely inhibit binding”. In addition, the “inactivating HSVs” value with HSV-1(F) or HSV-2(G) was “active”. The “Presence … pIIIenv X4, 6 h” value in assay [1] is recorded as “−”. Moreover, at 89.6 Env, the “Presence … VV89.6 envt R5, 23 h” value is on record as 1+/4+ (key: 4+: more than 50% of nuclei are in syncytia; 3+: 30 to 50% of nuclei are in syncytia; 2+: 30 to 10% of nuclei are in syncytia; +: less than 10% of nuclei are in syncytia; −: no syncytia were observed) and the “Presence … VV89.6 envt X4, 23 h” value is recorded as 1+/4+ (key: 4+: more than 50% of nuclei are in syncytia; 3+: 30 to 50% of nuclei are in syncytia; 2+: 30 to 10% of nuclei are in syncytia; +: less than 10% of nuclei are in syncytia; −: no syncytia were observed).

Take sulfonated 2-fluoroTPP [TPP2FS]: the “inhibition of HIV-1 IIIB (percent virus inactivated), screening assay” value in the assay on HIV-1 IIIB is reported as “about 80%”. In addition, the “inhibition of gp120/CD4 binding” value in assay [2] is 81%. At IIIB Env of HIV 1, the “Presence of nuclei in syncytia, VVenvl X4, 6 h” value is given as “−/4+” and the “Presence of nuclei in syncytia, VVenvl X4, 23 h” value is given as “−/4+ (key: 4+: more than 50% of nuclei are in syncytia; 3+: 30 to 50% of nuclei are in syncytia; 2+: 30 to 10% of nuclei are in syncytia; +: less than 10% of nuclei are in syncytia; −: no syncytia were observed)”. Also, the “inactivating HSVs” value in the assay on HSV-1(F) or HSV-2(G) is “active”. Moreover, the “Presence … pIIIenv X4, 6 h” value in assay [1] is recorded as “−”. Moreover, on 89.6 Env, the “Presence … VV89.6 envt R5, 6 h” value is listed as 4+/4+ (key: 4+: more than 50% of nuclei are in syncytia; 3+: 30 to 50% of nuclei are in syncytia; 2+: 30 to 10% of nuclei are in syncytia; +: less than 10% of nuclei are in syncytia; −: no syncytia were observed); the “Presence … VV89.6 envt R5, 23 h” value is recorded as 4+/4+ (key: 4+: more than 50% of nuclei are in syncytia; 3+: 30 to 50% of nuclei are in syncytia; 2+: 30 to 10% of nuclei are in syncytia; +: less than 10% of nuclei are in syncytia; −: no syncytia were observed); the “Presence … VV89.6 envt X4, 23 h” value was 1+/4+ (key: 4+: more than 50% of nuclei are in syncytia; 3+: 30 to 50% of nuclei are in syncytia; 2+: 30 to 10% of nuclei are in syncytia; +: less than 10% of nuclei are in syncytia; −: no syncytia were observed).

In the case of sulfonated 4-chloroTPP [TPP4ClS], in the assay with HIV-1 IIIB, the “inhibition of HIV-1 IIIB (percent virus inactivated), screening assay” value is “about 97%” and the “activity against HIV in words” value was “most active”. Also, the “inhibition of gp120/CD4 binding” value in assay [2] is 85%.

Consider “tetrakis(2-chlorosulfonatophenyl)porphyrin”, for which, in the assay with HSV-1(F) or HSV-2(G), the “inactivating HSVs” value was “active”.

As to “tetrakis(2-fluorosulfonatonatophenyl)porphyrin,Cu”, in the assay on HSV-1(F) or HSV-2(G), the “inactivating HSVs” value was “active”.
